Reference: US6476051B2, “Antipsychotic heterocycle compounds” (Bristol-Myers Squibb Company, priority 1999, dated 2002)
Read-outs that look alike come from different tables or passages of the source.

Key:
[1] = target: T1, recombinant human dopamine D2L receptors (Homo sapiens, UniProt P14416); experiment: Dopamine binding protocol ([3H]-spiperone binding, HEK-D2L cell membranes)
T1 construct: expressed in transfected cells; host or cells: HEK-293 (HEK-D2L cells), membrane homogenates
Procedure: Like many clinically effective antipsychotic agents, the compounds of Formula I also are antagonists at the human D2L receptor as determined by [^3H]-spiperone binding studies using human D2L receptors stably expressed in HEK-293 cells.
HEK-293 cells that stably express recombinant human dopamine D2L receptors (HEK-D2L cells) were grown at 37° C. in 5% CO2 as a monolayer in medium consisting of EMEM supplemented with 10% fetal bovine serum and G418 sulfate (500 μg/ml). To prepare membranes for radioligand binding experiments, cells were rinsed twice with phosphate-buffered saline (138 mM NaCl, 4.1 mM KCl, 5.1 mM Na2PO4, 1.5 mM […] 11.1 mM glucose, pH 7.4), and incubated for 5-10 min. at 4° C. in hypotonic lysis buffer consisting of 10 mM Tris (pH 7.4) and 5 mM EDTA. Cells were transferred from plates to polypropylene tubes (16×100 mm), homogenized and centrifuged at 32,000×g for 20 min. Following centrifugation, pellets were resuspended by homogenization in buffer consisting of 50 mM Tris (pH 7.7 at 25° C.) and 1 mM EDTA. Homogenates were stored at −80° C. until needed. On the day of an experiment, homogenates were thawed then centrifuged at 32,000×g for 20 min. Following centrifugation, supernatants were discarded and pellets were resuspended in assay buffer consisting of 50 mM Tris (pH 7.4 at 25° C.), 1 mM EDTA and 6 mM MgCl2. Membrane homogenates (˜5 μg) were incubated with 150 pM [^3H]-spiperone (Amersham Life Science) and increasing concentrations of test compounds for 1.5 hours at 22° C. in a total volume of 400 μl. Reactions were stopped by addition of ice-cold assay buffer and filtration over glass fiber filters (Whatman GFB, pre-soaked in 0.05% polyethylenimine) using a microtitre format Brandel cell harvester. Filters were washed with 3 ml of ice-cold assay buffer. Non-specific binding was defined with 2 μM (+)butaclamol. Ki values were calculated using the method of Cheng and Prusoff (1973). Protein concentrations were determined by the method of Bradford (1976) with BSA as a standard.
Test data IC50 values lower than 250 nM are considered to reflect affinity for dopamine D2L receptors.

[2] = target: T2, human serotonin transporters (Homo sapiens, UniProt P31645); experiment: Serotonin transporter binding assay ([3H]-citalopram binding, HEK-hSERT cell membranes)
T2 construct: expressed in transfected cells; host or cells: HEK-293 (HEK-hSERT cells), membrane homogenates
Excerpt: The compounds of Formula I bind potently to the human 5-HT transporter and inhibit the re-uptake of endogenous serotonin. Selective serotonin reuptake inhibitors (SSRIs) are effective for the treatment of mental depression and have been reported to be useful for treating chronic pain (see: R. W. Fuller, Pharmacologic Modification of Serotonergic Function: Drugs for the Study and Treatment of Psychiatric and Other Disorders,” J. Clin. Psychiatry, 47:4 (Suppl.) April 1986, pp. 4-8). Compounds of the present invention are also envisioned to be useful for treating psychosis, acute mania, mild anxiety states or depression with secondary psychotic episodes. The present compounds are also envisioned to be useful in treating obsessive-compulsive disorders, feeding disorders, anxiety disorders and panic disorders.
HEK-293 cells that stably express human serotonin transporters (HEK-hSERT cells) were grown at 37° C. in 5% CO2 as a monolayer in medium consisting of EMEM supplemented with 10% fetal bovine serum and G418 sulfate (500 μg/ml). To prepare membranes for radioligand binding experiments, cells were rinsed twice with phosphate-buffered saline (138 mM NaCl, 4.1 mM KCl, 5.1 mM Na2PO4, 1.5 mM […], 11.1 mM glucose, pH 7.4). Cells were transferred from plates to polypropylene tubes (16×100 mm), centrifuged at 1,200×g for 5 min and were frozen at −80° C. until assay. Following centrifugation, pellets were resuspended by homogenization in buffer consisting of 50 mM Tris (pH 7.7 at 25° C.), 120 mM NaCl and 5 mM KCl and then centrifuged at 32,000×g for 10 min. Following centrifugation, supernatants were discarded and pellets were resuspended in buffer consisting of 50 mM Tris (pH 7.4 at 25° C.), 150 mM NaCl and 5 mM KCl. Membrane homogenates (200 μl/plate) were incubated with 1 nM [^3H]-citalopram (specific activity=85 Ci/mmol) and increasing concentrations of test compounds for 1 hour at 25° C. in a total volume of 250 μl. The assay buffer consisted of 50 mM Tris (pH 7.4 at 25° C.), 120 mM NaCl and 5 mM KCl (pH 7.4 with conc. HCl). Plates were incubated for 1 hour at 25° C., then filtered through 0.5% PEI treated Whatman GF/B filters using a Brandel cell harvester. Filters were washed three times with 3 ml of ice-cold tris wash buffer. Non-specific binding was defined with 10 μM fluoxetine. Amount of radioligand bound in the presence and absence of competitor was analyzed by plotting (−)log drug concentration versus the amount of radioligand specifically bound. The midpoint of the displacement curve (IC50, nM), signifies the potency. Ki values were calculated using the method of Cheng and Prusoff (1973).
Substances which inhibit the re-uptake of serotonin are recognized to be effective antidepressants (Selective Serotonin Reuptake Inhibitors. Edited by J P Feighner and W F Boyer, Chichester, England. John Wiley & Sons, 1991, pp 89-108). Test data IC50 values lower than 250 nM are considered to reflect activity as an inhibitor of serotonin re-uptake.

[3] = [3H]-spiperone, HEK-D2L membranes, read-out: dopamine D2L ligands with Ki
[4] = [3H]-citalopram, HEK-hSERT membranes, read-out: inhibit the re-uptake of serotonin with Ki

T2 sequence (P31645 whole entry): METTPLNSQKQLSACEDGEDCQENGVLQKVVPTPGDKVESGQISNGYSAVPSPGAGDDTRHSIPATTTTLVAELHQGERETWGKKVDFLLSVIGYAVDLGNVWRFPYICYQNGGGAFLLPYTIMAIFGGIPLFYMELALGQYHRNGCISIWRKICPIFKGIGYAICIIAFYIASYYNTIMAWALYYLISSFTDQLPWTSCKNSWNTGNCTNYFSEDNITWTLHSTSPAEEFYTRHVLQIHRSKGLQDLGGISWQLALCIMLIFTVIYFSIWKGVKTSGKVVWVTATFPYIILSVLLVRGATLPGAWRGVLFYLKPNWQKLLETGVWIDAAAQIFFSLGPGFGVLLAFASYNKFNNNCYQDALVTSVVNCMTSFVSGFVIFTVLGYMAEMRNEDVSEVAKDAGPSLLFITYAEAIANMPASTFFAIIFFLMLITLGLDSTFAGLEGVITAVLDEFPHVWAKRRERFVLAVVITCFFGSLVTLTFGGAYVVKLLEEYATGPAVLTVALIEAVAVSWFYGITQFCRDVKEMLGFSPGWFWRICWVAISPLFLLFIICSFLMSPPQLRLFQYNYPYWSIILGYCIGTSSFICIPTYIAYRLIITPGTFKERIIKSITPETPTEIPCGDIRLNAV
T1 sequence (P14416 whole entry): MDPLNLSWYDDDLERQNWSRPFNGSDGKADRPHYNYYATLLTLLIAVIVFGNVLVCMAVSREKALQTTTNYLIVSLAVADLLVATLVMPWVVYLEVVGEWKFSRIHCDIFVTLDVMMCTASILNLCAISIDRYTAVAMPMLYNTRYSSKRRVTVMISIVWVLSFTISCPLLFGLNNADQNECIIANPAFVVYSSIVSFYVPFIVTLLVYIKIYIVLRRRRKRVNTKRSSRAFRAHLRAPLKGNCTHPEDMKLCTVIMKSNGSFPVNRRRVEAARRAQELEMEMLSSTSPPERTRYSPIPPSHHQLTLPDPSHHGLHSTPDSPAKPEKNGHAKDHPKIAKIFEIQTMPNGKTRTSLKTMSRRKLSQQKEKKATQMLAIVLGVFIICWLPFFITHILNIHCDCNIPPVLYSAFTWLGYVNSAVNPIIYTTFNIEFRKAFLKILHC

| SMILES | Ki [1, 3] [µM] | Ki [2, 4] [µM] | Ki [1] [µM] | Ki [2] [µM] |
| --- | --- | --- | --- | --- |
| N#Cc1ccc2[nH]cc(C3CCN(CCCOc4ccccc4)CC3)c2c1 [Example 4, 3-[1-(3-phenoxypropyl)-4-piperidinyl]-5-cyanoindole] | < 0.1 | < 0.1 |  |  |
| N#Cc1ccc2[nH]cc(C3CCN(CCCOc4ccccc4F)CC3)c2c1 [Example 5, 3-{1-[3-(2-fluorophenoxy)propyl]-4-piperidinyl}-5-cyanoindole] | < 0.1 | < 0.1 |  |  |
| N#Cc1ccc2[nH]cc(C3CCN(CCCOc4ccc(F)cc4)CC3)c2c1 [Example 6, 3-{1-[3-(4-fluorophenoxy)propyl]-4-piperidinyl}-5-cyanoindole] | < 0.1 | < 0.1 |  |  |
| COc1ccccc1OCCCN1CCC(c2c[nH]c3ccc(C#N)cc23)CC1 [Example 7, 3-{1-[3-(2-methoxyphenoxy)propyl]-4-piperidinyl}-5-cyanoindole] | < 0.1 | < 0.1 |  |  |
| COc1cccc(OCCCN2CCC(c3c[nH]c4ccc(C#N)cc34)CC2)c1 [Example 8, 3-{1-[3-(3-methoxyphenoxy)propyl]-4-piperidinyl}-5-cyanoindole] | < 0.1 | < 0.1 |  |  |
| COc1ccc(OCCCN2CCC(c3c[nH]c4ccc(C#N)cc34)CC2)cc1 [Example 9, 3-{1-[3-(4-methoxyphenoxy)propyl]-4-piperidinyl}-5-cyanoindole] | < 0.1 | < 0.1 |  |  |
| COc1ccc(OCCCN2CCC(c3c[nH]c4ccc(C#N)cc34)CC2)cc1OC [Example 10, 3-{1-[3-(3,4-dimethoxyphenoxy)propyl]-4-piperidinyl}-5-cyanoindole] | < 0.1 | < 0.1 |  |  |
| Cc1nc2cc(OCCCN3CC=C(c4c[nH]c5cccc(F)c45)CC3)ccc2s1 [Example 11, 5-{3-[4-(4-fluoroindol-3-yl)-1,2,5,6-tetrahydropyrid-1-yl]propoxy}-2-methylbenzothiazole] |  |  | < 0.1 | < 0.1 |
| Cc1nc2cc(OCCCN3CC=C(c4c[nH]c5ccc(C#N)cc45)CC3)ccc2s1 [Example 12, 5-{3-[4-(5-cyanoindol-3-yl)-1,2,5,6-tetrahydropyrid-1-yl]propoxy}-2-methylbenzothiazole] |  |  | < 0.1 | < 0.1 |
| Cc1nc2cc(OCCCCN3CC=C(c4c[nH]c5cccc(F)c45)CC3)ccc2s1 [Example 13, 5-{4-[4-(4-fluoroindol-3-yl)1,2,5,6-tetrahydropyrid-1-yl]butoxy}-2-methylbenzothiazole] |  |  | < 0.1 | < 0.1 |
| Cc1nc2cc(OCCCCCN3CC=C(c4c[nH]c5cccc(F)c45)CC3)ccc2s1 [Example 14, 5-{5-[4-(4-fluoroindol-3-yl)-1,2,5,6-tetrahydropyrid-1-yl]pentoxy}-2-methylbenzothiazole] |  |  | < 0.1 | < 0.1 |
| Cc1nc2cc(OCCCCN3CC=C(c4c[nH]c5ccc(F)cc45)CC3)ccc2s1 [Example 15, 5-{4-[4-(5-fluoroindol-3-yl)1,2,5,6-tetrahydropyrid-1-yl]butoxy}-2-methylbenzothiazole] |  |  | < 0.1 | < 0.1 |
| Cc1nc2cc(OCCCCCN3CC=C(c4c[nH]c5ccc(F)cc45)CC3)ccc2s1 [Example 16, 5-{5-[4-(5-fluoroindol-3-yl)-1,2,5,6-tetrahydropyrid-1-yl]pentoxy}-2-methylbenzothiazole] |  |  | < 0.1 | < 0.1 |
| Cc1nc2cc(OCCCN3CC=C(c4c[nH]c5c(F)cccc45)CC3)ccc2s1 [Example 17, 5-{3-[4-(7-fluoroindol-3-yl)-1,2,5,6-tetrahydropyrid-1-yl]propoxy}-2-methylbenzothiazole] |  |  | < 0.1 | < 0.1 |
| Cc1nc2cc(OCCCCN3CC=C(c4c[nH]c5c(F)cccc45)CC3)ccc2s1 [Example 18, 5-{4-[4-(7-fluoroindol-3-yl)1,2,5,6-tetrahydropyrid-1-yl]butoxy}-2-methylbenzothiazole] |  |  | < 0.1 | < 0.1 |
| Cc1nc2cc(OCCCCCN3CC=C(c4c[nH]c5c(F)cccc45)CC3)ccc2s1 [Example 19, 5-{5-[4-(7-fluoroindol-3-yl)-1,2,5,6-tetrahydropyrid-1-yl]pentoxy}-2-methylbenzothiazole] |  |  | < 0.1 | < 0.1 |
| Cc1nc2cc(OCCCCN3CC=C(c4c[nH]c5ccc(Cl)cc45)CC3)ccc2s1 [Example 20, 5-{4-[4-(5-chloroindol-3-yl)1,2,5,6-tetrahydropyrid-1-yl]butoxy}-2-methylbenzothiazole] |  |  | < 0.1 | < 0.1 |
| Cc1nc2cc(OCCCCCN3CC=C(c4c[nH]c5ccc(Cl)cc45)CC3)ccc2s1 [Example 21, 5-{5-[4-(5-chloroindol-3-yl)-1,2,5,6-tetrahydropyrid-1-yl]pentoxy}-2-methylbenzothiazole] |  |  | < 0.1 | < 0.1 |
| Cc1nc2cc(OCCCN3CC=C(c4c[nH]c5cc(Cl)ccc45)CC3)ccc2s1 [Example 22, 5-{3-[4-(6-chloroindol-3-yl)-1,2,5,6-tetrahydropyrid-1-yl]propoxy}-2-methylbenzothiazole] |  |  | < 0.1 | < 0.1 |
| Cc1nc2cc(OCCCCN3CC=C(c4c[nH]c5cc(Cl)ccc45)CC3)ccc2s1 [Example 23, 5-{4-[4-(6-chloroindol-3-yl)1,2,5,6-tetrahydropyrid-1-yl]butoxy}-2-methylbenzothiazole] |  |  | < 0.1 | < 0.1 |
| Cc1nc2cc(OCCCCCN3CC=C(c4c[nH]c5cc(Cl)ccc45)CC3)ccc2s1 [Example 24, 5-{5-[4-(6-chloroindol-3-yl)-1,2,5,6-tetrahydropyrid-1-yl]pentoxy}-2-methylbenzothiazole] |  |  | < 0.1 | < 0.1 |
| Cc1nc2cc(OCCCN3CC=C(c4c[nH]c5cc(Br)ccc45)CC3)ccc2s1 [Example 25, 5-{3-[4-(6-bromoindol-3-yl)-1,2,5,6-tetrahydropyrid-1-yl]propoxy}-2-methylbenzothiazole] |  |  | < 0.1 | < 0.1 |
| Cc1nc2cc(OCCCCN3CC=C(c4c[nH]c5cc(Br)ccc45)CC3)ccc2s1 [Example 26, 5-{4-[4-(6-bromoindol-3-yl)1,2,5,6-tetrahydropyrid-1-yl]butoxy}-2-methylbenzothiazole] |  |  | < 0.1 | < 0.1 |
| Cc1nc2cc(OCCCCCN3CC=C(c4c[nH]c5cc(Br)ccc45)CC3)ccc2s1 [Example 27, 5-{5-[4-(6-bromoindol-3-yl)-1,2,5,6-tetrahydropyrid-1-yl]pentoxy}-2-methylbenzothiazole] |  |  | < 0.1 | < 0.1 |
